Source: patent US20060167076A1, “Acutumine and acutumine compounds synthesis and use” (priority 2002, published 2006)

Tests used:
[1] = system: Wistar rat; test: Social recognition in the Wistar rat; type: in vivo; conditions: 20 mg/kg; second encounter after 2 hours
From the text: Initially described in 1982 by THOR and HOLLOWAY (J. Comp. Physiol., 1982, 29 1000-1006), the social recognition test has subsequently been proposed by various authors (DANTZER et al., Psychopharmacology, 1987, 91, 363-368; PERIO et al., Psychopharmacology, 1989, 97, 262-268) for studying the mnemocognitive effects of new compounds. The test is based on the natural expression of the olfactory memory of the rat and its natural tendency to forget and allows evaluation of memorisation, by recognition of a young congeneric animal, by an adult rat. A young rat (21 days), taken at random, is placed for 5 minutes in the cage housing an adult rat. With the aid of a video device, the experimenter observes the social recognition behaviour of the adult rat and measures its overall duration. The young rat is then removed from the adult rat's cage and is placed in its own cage until the second introduction. The adult rat is given the compound under test and, after 2 hours, is again brought into the presence (5 minutes) of the young rat. The social recognition behaviour is then observed again and its duration measured. The assessment criterion is the difference (T2−T1), expressed in seconds, between the “recognition” times of the 2 encounters.

[2] = system: Wistar rat; test: Object recognition in the Wistar rat; type: in vivo; conditions: 10 mg/kg; second session 24 hours later
From the text: The object recognition test in the Wistar rat was initially developed by ENNACEUR and DELACOUR (Behav. Brain Res., 1988, 31, 47-59). The test is based on the spontaneous exploratory activity of the animal and has the characteristics of episodic memory in humans. This memory test is sensitive to ageing (SCALI et al., Eur. J. Pharmacol., 1997, 325, 173-180) and to cholinergic dysfunctions (BARTOLINI et al., Pharm. Biochem. Behav. 1996, 53(2), 277-283) and is based on the differences in the exploration of 2 objects of fairly similar shape—one familiar, the other new. Prior to the test, the animals are habituated to the environment (an enclosure without an object). In the course of a first session, the rats are placed (3 minutes) in the enclosure, in which there are 2 identical objects. The duration of exploration is measured for each object. In the course of the second session (3 minutes), 24 hours later, 1 of the 2 objects is replaced by a new object. The duration of exploration is measured for each object. The assessment criterion is the difference, Delta, expressed in seconds, between the exploration times for the new object and for the familiar object in the course of the second session.

[3] = system: scopolamine-induced memory impairments; test: Morris water maze test with scopolamine as amnesic agent; type: in vivo, mouse; conditions: 60 mg/kg p.o.; scopolamine 5 mg/kg i.p.; control animals 43 seconds
From the text: The anti-amnesic effects of the compounds of the present invention have been evaluated using the Morris water maze test (Morris et al., Nature, 1986, 319, 774-776) in the mouse and scopolamine as amnesic agent. Kumming strain mice (18-24 g, Shanghai Experimental Animal Centre) of either sex were used. Mice were placed on the water maze (80×50×20 cm) and trained to find the platform. Following the period of one day's habituation, each mouse received 3 daily training sessions for seven days. Mice were trained to a criterion of finding the platform within 20 seconds and with <2 errors of entering a dead-end. Once a mouse met the criterion, training was reduced to one daily session until all mice met the criterion. Trained mice were randomly assigned to sub-groups. Compounds under study were dissolved in distilled water and administered by the oral route 40 minutes before behavioural testing. Scopolamine (5 mg/kg, i.p.) was injected 30 minutes before the test. The number of errors and the time for reaching the platform were recorded. Data were expressed as means±s.e.m. Statistical analysis was performed using ANOVA followed by Duncan's multiple-range test.

[4] = system: animal experimental models; test: Mnemocognition in animal experimental models (unspecified); type: in vivo

Q: Which “difference (T2−T1) between recognition times of the 2 encounters” value [1] does the source give for “Spiro[(4S,5S)-4-hydroxy-3-methoxy-2-cyclopenten-1-one-5:3(2S)-2-chloro-3aS,7aS-((2,3)-1-methylpyrrolidine)-6,7-dimethoxy-1,2,3,3a,4,7a-hexahydro-5H-inden-5-one oxime] [Example 4]” here?
A: -45 s

Q: What about the “difference, Delta, between exploration times for the new and the familiar object” value [2] of the same compound?
A: 8 s

Q: With `CCC(=O)OC1C(OC)=CC(=O)[C@]12[C@@H](Cl)CC13C(OC)=C(OC)C(=O)CC12CCN3C` (stereo partly drawn) [Example 1, Spiro[(4S,5S)-4-(ethoxycarbonyl)-3-methoxy-2-cyclopenten-1-one-5:3(2S)-2-chloro-3aS,7aS-((2,3)-1-methylpyrrolidine)-6,7-dimethoxy-1,2,3,3a,4,7a-hexahydro-5H-inden-5-one]] as the compound, how does the “time for reaching the platform” value [3] read?
A: ≤ 18 s

Q: With `COC1=CC(=O)C2(C1O)[C@@H](Cl)CC13C(OC)=C(OC)C(=O)CC21CCN3C` (stereo partly shown) [acutumine] as the compound, how does the mnemocognition-facilitating properties [4] read?
A: mnemocognition-facilitating properties
